# According to ChEMBL document CHEMBL1201862, “PubChem BioAssay data set” (2004):
#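 In this assay, cells in 96-well plates receive the compound at five concentrations for 48 hours. Endpoints are linearly interpolated between the surrounding concentrations. GI50 = concentration required for 50% inhibition of growth.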 Calls of active or inactive are those of the source. Cut-off read from the data, not from the text of the source: active = GI50 up to about 1.1 µM and inactive = higher.
# What was measured:
# Test in all cases: NCI-60 cell line screen, 48 h
# NCI/ADR-RES = test system: NCI/ADR-RES
# SN12C = test system: SN12C
# NCI-H522 = test system: NCI-H522
# SNB-19 = test system: SNB-19
# NCI-H23 = test system: NCI-H23
# HCC 2998 = test system: HCC 2998
# T47D = test system: T47D
# HL-60 = test system: HL-60
# LOX IMVI = test system: LOX IMVI
# TK-10 = test system: TK-10
# K562 = test system: K562
# SK-OV-3 = test system: SK-OV-3
# OVCAR-4 = test system: OVCAR-4
# SNB-75 = test system: SNB-75
# SR = test system: SR
# DU-145 = test system: DU-145
# HOP-92 = test system: HOP-92
# U-251 = test system: U-251
# MDA-MB-435 = test system: MDA-MB-435
# HCT-116 = test system: HCT-116
# MDA-MB-231 = test system: MDA-MB-231
# SF-539 = test system: SF-539
# UO-31 = test system: UO-31
# MOLT-4 = test system: MOLT-4
# SK-MEL-28 = test system: SK-MEL-28
# COLO 205 = test system: COLO 205
# SK-MEL-5 = test system: SK-MEL-5
# A549 = test system: A549
# SW-620 = test system: SW-620
# Hs-578T = test system: Hs-578T
# UACC-62 = test system: UACC-62
# NCI-H460 = test system: NCI-H460
# EKVX = test system: EKVX
# OVCAR-8 = test system: OVCAR-8
# RXF 393 = test system: RXF 393
# OVCAR-3 = test system: OVCAR-3
# M14 = test system: M14
# HT-29 = test system: HT-29
# CCRF-CEM = test system: CCRF-CEM
# OVCAR-5 = test system: OVCAR-5
# IGROV-1 = test system: IGROV-1
# RPMI-8226 = test system: RPMI-8226
# SF-268 = test system: SF-268
# ACHN = test system: ACHN
# KM12 = test system: KM12
# BT-549 = test system: BT-549
# UACC-257 = test system: UACC-257
# HCT-15 = test system: HCT-15
# CAKI-1 = test system: CAKI-1
# SK-MEL-2 = test system: SK-MEL-2
# SF-295 = test system: SF-295
# MDA-N = test system: MDA-N
# PC-3 = test system: PC-3
# MCF7 = test system: MCF7
# HOP-62 = test system: HOP-62
# Malme-3M = test system: Malme-3M
# 786-0 = test system: 786-0
# A498 = test system: A498
# NCI-H226 = test system: NCI-H226
smiles,measurement,setting,value
NC(CCP(=O)(O)CCC1C=CC=CC1)C(=O)O (centres undefined),GI50,NCI/ADR-RES,> 100 µM (inactive)
same,GI50,SN12C,> 100 µM (inactive)
same,GI50,NCI-H522,20.7 µM (inactive)
same,GI50,SNB-19,> 100 µM (inactive)
same,GI50,NCI-H23,> 100 µM (inactive)
same,GI50,HCC 2998,> 100 µM (inactive)
same,GI50,T47D,> 100 µM (inactive)
same,GI50,HL-60,> 100 µM (inactive)
same,GI50,LOX IMVI,> 100 µM (inactive)
same,GI50,TK-10,> 100 µM (inactive)
same,GI50,K562,> 100 µM (inactive)
same,GI50,SK-OV-3,> 100 µM (inactive)
same,GI50,OVCAR-4,> 100 µM (inactive)
same,GI50,SNB-75,> 100 µM (inactive)
same,GI50,SR,> 100 µM (inactive)
same,GI50,DU-145,> 100 µM (inactive)
same,GI50,HOP-92,> 100 µM (inactive)
same,GI50,U-251,> 100 µM (inactive)
same,GI50,MDA-MB-435,> 100 µM (inactive)
same,GI50,HCT-116,> 100 µM (inactive)
same,GI50,MDA-MB-231,> 100 µM (inactive)
same,GI50,SF-539,56.8 µM (inactive)
same,GI50,UO-31,> 100 µM (inactive)
same,GI50,MOLT-4,> 100 µM (inactive)
same,GI50,SK-MEL-28,> 100 µM (inactive)
same,GI50,COLO 205,> 100 µM (inactive)
same,GI50,SK-MEL-5,> 100 µM (inactive)
same,GI50,A549,> 100 µM (inactive)
same,GI50,SW-620,> 100 µM (inactive)
same,GI50,Hs-578T,> 100 µM (inactive)
same,GI50,UACC-62,> 100 µM (inactive)
same,GI50,NCI-H460,> 100 µM (inactive)
same,GI50,EKVX,> 100 µM (inactive)
same,GI50,OVCAR-8,> 100 µM (inactive)
same,GI50,RXF 393,> 100 µM (inactive)
same,GI50,OVCAR-3,> 100 µM (inactive)
same,GI50,M14,> 100 µM (inactive)
same,GI50,HT-29,> 100 µM (inactive)
same,GI50,CCRF-CEM,> 100 µM (inactive)
same,GI50,OVCAR-5,> 100 µM (inactive)
same,GI50,IGROV-1,> 100 µM (inactive)
same,GI50,RPMI-8226,> 100 µM (inactive)
same,GI50,SF-268,> 100 µM (inactive)
same,GI50,ACHN,> 100 µM (inactive)
same,GI50,KM12,> 100 µM (inactive)
same,GI50,BT-549,> 100 µM (inactive)
same,GI50,UACC-257,> 100 µM (inactive)
same,GI50,HCT-15,> 100 µM
same,GI50,CAKI-1,> 100 µM (inactive)
same,GI50,SK-MEL-2,> 100 µM (inactive)
same,GI50,SF-295,> 100 µM (inactive)
same,GI50,MDA-N,> 100 µM (inactive)
same,GI50,PC-3,> 100 µM (inactive)
C=C[C@]1(C)CC(=O)C(C(C)C=O)[C@]12C(=O)Oc1cccc(C)c1C2=O (some centres undefined),GI50,SN12C,16.3 µM (inactive)
same,GI50,NCI-H522,3.72 µM (inactive)
same,GI50,SNB-19,12.2 µM (inactive)
same,GI50,NCI-H23,17.1 µM (inactive)
same,GI50,HCC 2998,17.7 µM (inactive)
same,GI50,T47D,16.4 µM (inactive)
same,GI50,HL-60,4 µM (inactive)
same,GI50,LOX IMVI,14 µM (inactive)
same,GI50,TK-10,14.8 µM (inactive)
same,GI50,K562,12.9 µM (inactive)
same,GI50,SK-OV-3,16.6 µM (inactive)
same,GI50,OVCAR-4,17.2 µM (inactive)
same,GI50,SNB-75,16.4 µM (inactive)
same,GI50,SR,27 µM (inactive)
same,GI50,DU-145,16.8 µM (inactive)
same,GI50,U-251,14.6 µM (inactive)
same,GI50,MDA-MB-435,15.2 µM (inactive)
same,GI50,HCT-116,7.85 µM (inactive)
same,GI50,MDA-MB-231,17.6 µM (inactive)
same,GI50,SF-539,16.2 µM (inactive)
same,GI50,MCF7,16.5 µM (inactive)
same,GI50,UO-31,15.5 µM (inactive)
same,GI50,MOLT-4,23.9 µM (inactive)
same,GI50,SK-MEL-28,15.2 µM (inactive)
same,GI50,COLO 205,17.3 µM (inactive)
same,GI50,SK-MEL-5,13.2 µM (inactive)
same,GI50,A549,18 µM (inactive)
same,GI50,SW-620,11.8 µM (inactive)
same,GI50,Hs-578T,16.3 µM (inactive)
same,GI50,UACC-62,16.1 µM (inactive)
same,GI50,NCI-H460,16.6 µM (inactive)
same,GI50,EKVX,19.4 µM (inactive)
same,GI50,OVCAR-8,16.1 µM (inactive)
same,GI50,RXF 393,13.9 µM (inactive)
same,GI50,OVCAR-3,15.9 µM (inactive)
same,GI50,M14,16.3 µM (inactive)
same,GI50,HT-29,13.7 µM (inactive)
same,GI50,HOP-62,20.2 µM (inactive)
same,GI50,Malme-3M,18 µM (inactive)
same,GI50,CCRF-CEM,2.26 µM (inactive)
same,GI50,786-0,16.4 µM (inactive)
same,GI50,OVCAR-5,16.6 µM (inactive)
same,GI50,RPMI-8226,8.22 µM (inactive)
same,GI50,SF-268,24.1 µM (inactive)
same,GI50,A498,25.9 µM (inactive)
same,GI50,ACHN,15.6 µM (inactive)
same,GI50,KM12,14.7 µM (inactive)
same,GI50,BT-549,14.3 µM (inactive)
same,GI50,UACC-257,17.6 µM (inactive)
same,GI50,HCT-15,14.9 µM
same,GI50,CAKI-1,14.4 µM (inactive)
same,GI50,SK-MEL-2,17.1 µM (inactive)
same,GI50,NCI-H226,15.3 µM (inactive)
same,GI50,SF-295,15.5 µM (inactive)
same,GI50,MDA-N,14.5 µM (inactive)
same,GI50,PC-3,13.3 µM (inactive)
